In ChEMBL document CHEMBL2331287, “Inhibition of mTOR Kinase and Cancer Treatment” (ACS Med Chem Lett, 2013) one finds IC50 data, which are given here for two compounds.

A short description of assay [1]: Inhibition of mTORC2 in human PC3 cells assessed as reduction in phosphorylated AKT S473 level after 90 mins by immunofluorescence assay. The assay is classed as cell-based. The following applies: PC-3, 1.5 h.
The target of assay [2] is mTORC1 (Homo sapiens, UniProt P42345). The assay can be described thus: Inhibition of mTORC1 in human PC3 cells assessed as reduction in phosphorylated 4E-BP1Thr37/46 level after 90 mins by immunofluorescence assay. The assay is classed as cell-based, PC-3.

Molecules are shown by their SMILES.

As to `O=C(c1nnc[nH]1)N1[C@@H]2CC[C@H]1C[C@H](c1nc3c(-c4ccc(-c5ncc[nH]5)nc4)cnn3c3[nH]ccc13)C2`, the IC50 in assay [1] and in assay [2] was 1 nM each time.

Turning to `Cc1n[nH]c2c1c([C@@H]1C[C@H]3CC[C@@H](C1)N3C(=O)c1nnc[nH]1)nc1c(-c3ccc(-c4ccccc4)nc3)cnn12`, the half-inhibitory concentration (IC50) in assay [1] is 1 nM; in assay [2], 100 nM.
